# Data reported in paper PMC4871480, “A Miniaturized Screen of a Schistosoma mansoni Serotonergic G Protein-Coupled Receptor Identifies Novel Classes of Parasite-Selective Inhibitors” (PLoS Pathogens, 2016).
# Entries after “also recorded” stand apart in the source; their conditions may differ. Like-named read-outs stand apart in the source and are kept apart here.
# How the values were obtained:
# Sm.5HTR [1] = target: T1, Sm.5HTR (Schistosoma mansoni, UniProt G4V5G4); experiment: cell-based; assay type: cell-based; conditions: for ligand type at Sm.5HTR: Fig 5F; for Emax: HEK293, read-out: 5-HT Emax; for GPCR inhibition profile compared with rotundine: Sm.5HTR vs Hs.5HT7R, Fig F in S1 Text; for potency (IC50) at Sm.5HTR: Fig 7 quadrant; for activity at Sm.5HTR: antagonist/modulator screening; for agonist efficacy at Sm.5HTR: dose response, Fig 5A
# T1 sequence (G4V5G4 entry or part of it): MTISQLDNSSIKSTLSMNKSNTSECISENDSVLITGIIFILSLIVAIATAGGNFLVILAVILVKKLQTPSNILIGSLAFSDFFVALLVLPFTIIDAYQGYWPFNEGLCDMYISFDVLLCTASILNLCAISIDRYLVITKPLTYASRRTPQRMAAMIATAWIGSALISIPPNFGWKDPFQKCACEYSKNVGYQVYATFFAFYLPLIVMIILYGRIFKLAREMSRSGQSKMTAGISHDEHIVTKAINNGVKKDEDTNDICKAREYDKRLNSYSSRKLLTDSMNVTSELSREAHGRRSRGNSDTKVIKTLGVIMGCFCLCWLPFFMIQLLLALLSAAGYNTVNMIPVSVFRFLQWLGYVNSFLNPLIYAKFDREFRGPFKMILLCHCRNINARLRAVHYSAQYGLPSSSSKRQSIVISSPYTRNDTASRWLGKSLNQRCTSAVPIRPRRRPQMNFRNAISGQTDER
# Method: (§1) HEK293 cells (ATCC CRL-1573.3) were cultured in DMEM supplemented with 10% fetal bovine serum (FBS), penicillin (100 units/ml), streptomycin (100 μg/ml), and L-glutamine (290 μg/ml). Cells were transiently transfected (ViaFect, Promega) as per the manufacturer’s protocol at a density of 2x10^6 cells per T-25 cell-culture flask. Cells were transfected with plasmids encoding GloSensor (Promega) and either Sm.5HTR (Smp_126730, GenBank accession number KF444051.1) or Sm.5HTRL (KX150867), bothGPCRs being codon optimized for mammalian expression, or Hs.5HT7a (GenBank accession number NM_000872.4, R&D Systems) subcloned into pCS2(-). Cell culture reagents were from Invitrogen. Epitope tagged constructs were used to verify expression, and untagged constructs used for all luminescence assays.
# (§2) For assays performed on adherent cells, HEK-293 cells were transferred one day post transfection to 96 well, solid white plates (Corning, cat # 3917) coated with 0.01% poly-L-lysine (Sigma Aldrich) at a density of 5 x 10^4 cells / well in DMEM supplemented with 1% dialyzed FBS (Gibco). After overnight culture (37°C/5% CO2), media was decanted and replaced with 100μL / well HBSS supplemented with 0.1% BSA, 20mM HEPES (pH 7.4) and GloSensor reagent. Plates were allowed to equilibrate at room temperature for two hours prior to performing luminescence assays (GloMax-Multi Detection System plate reader, Promega). Conditions for individual assays were described as per figure legends. The standard assay to detect changes in cAMP utilized the F22 sensor in media supplemented with IBMX (200μM). Ligands were added at a concentration of 20x per well for experiments (i.e. 5μl of drug solution added to 100μl of cells). […] For the resazurin reduction assay for cellular viability, cells were incubated with resazurin (final concentration, 10μM) and tested ligands with fluorescence measurements (560 nm excitation/590 nm emission) made at 1.5hr intervals.
# Sm.5HTRL = Sm.5HTRL (Schistosoma mansoni, UniProt A0A173FEI8); experiment: GloSensor cAMP assay in HEK293 cells expressing Sm.5HTRL; assay type: cell-based; conditions: for inhibition of 5-HT evoked cAMP generation through Sm.5HTRL: antagonists 10μM, 5-HT EC80 dose
# Sequence of Sm.5HTRL (A0A173FEI8 entry or part of it): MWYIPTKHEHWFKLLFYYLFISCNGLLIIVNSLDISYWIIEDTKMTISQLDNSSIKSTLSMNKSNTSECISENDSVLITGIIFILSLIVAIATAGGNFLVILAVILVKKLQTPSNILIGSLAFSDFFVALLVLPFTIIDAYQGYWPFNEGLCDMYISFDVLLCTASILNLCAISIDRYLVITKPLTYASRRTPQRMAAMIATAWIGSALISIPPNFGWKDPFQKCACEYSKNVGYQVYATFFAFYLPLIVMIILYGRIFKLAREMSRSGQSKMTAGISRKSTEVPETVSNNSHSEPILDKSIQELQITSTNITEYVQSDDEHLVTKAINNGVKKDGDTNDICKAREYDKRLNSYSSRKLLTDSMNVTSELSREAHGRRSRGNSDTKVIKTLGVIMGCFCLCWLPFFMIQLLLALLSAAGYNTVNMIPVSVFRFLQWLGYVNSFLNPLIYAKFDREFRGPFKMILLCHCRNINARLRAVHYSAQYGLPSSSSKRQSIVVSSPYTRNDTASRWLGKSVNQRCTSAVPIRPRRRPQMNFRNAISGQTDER
# Method: as §1, §2
# Sm.5HTR [2] = target: T1, Sm.5HTR; experiment: Antagonist washout (inactivating antagonist) GloSensor assay on suspension cells; assay type: cell-based; conditions: for inhibition of Sm.5HTR after antagonist wash-out: 10μM for 30 mins, washout, 5-HT response 1hr later
# Method: To test putative irreversible antagonists, assays on suspension cells were performed one day post transfection. […] Compounds were added at 10 μM, and after 30 minute incubation at room temperature cells were centrifuged (300 RCF, 5 minutes) and resuspended in fresh media. This wash step was repeated, and cells were resuspended in HBSS supplemented with 0.1% BSA, 20mM HEPES and GloSensor reagent. Cells were gently rotated to prevent aggregation and settling over the course of the two hour equilibration period, after which time they were transferred to 96 well plates at a density of 8 x 10^4 cells / 100μL per well and assays described for adherent cells.
# [3] = tested on: S. mansoni schistosomules; experiment: Schistosomule contractility assay; assay type: in vivo, Schistosoma mansoni
# Method: Biomphalaria glabrata (M-line) snails exposed to Schistosoma mansoni miracidia (Strain PR-1) were obtained from BEI Resources (Cat. number NR-21961) and cercaria were shed following exposure to light (1.5 hours). Cercaria were manually transformed into schistosomula by vortexing (3 x 45 seconds, each separated by 3 minutes on ice) and tails were removed by gradient centrifugation (24ml Percoll, 4ml 10X EMEM, 1.5ml penicillin-streptomycin, 1ml of 1M HEPES in 0.85% NaCl, 9.5ml distilled water) at 500g/15min at 4°C. Supernatant containing tails was discarded, and schistosomules were resuspended in Basch media and incubated (37°C, 5% CO2) overnight before conducting mobility assays. For contractility experiments, somules were incubated in 5-HT free Basch media to resolve a basal contractility rate. […] Schistosomules were incubated in 24 well plates (~200 schistosomules / 0.5mL media per well) for 30 minutes (37°C/5% CO2) prior to acquiring videos of schistosome movement (1 minute recordings / well) using a Nikon Coolpix 5700 camera affixed to a Nikon Eclipse TS100 microscope (10x objective). The WrmTrck plugin for ImageJ was used to quantify worm mobility. Briefly, the major axis of each schistosomule body length was extracted from the raw output of WrmTrck and an average length was determined for the duration of the recording. Contractions were quantified by determining the number of episodes during which the worm body length deviated from the average by over 20%. S. mansoni protocols were approved by the Iowa State University Institutional Biosafety Committee.
# Hs.5HT7R = target: T2, Hs.5HT7R (Homo sapiens, UniProt P34969); experiment: GloSensor cAMP assay in HEK293 cells expressing Hs.5HT7R; assay type: cell-based; conditions: for potency (IC50) at Hs.5HT7R: Fig 7 quadrant
# T2 construct: host or cells: HEK293 (ATCC CRL-1573.3), transient transfection, pCS2(-) vector
# T2 sequence (P34969 1-445 isoform P34969-2): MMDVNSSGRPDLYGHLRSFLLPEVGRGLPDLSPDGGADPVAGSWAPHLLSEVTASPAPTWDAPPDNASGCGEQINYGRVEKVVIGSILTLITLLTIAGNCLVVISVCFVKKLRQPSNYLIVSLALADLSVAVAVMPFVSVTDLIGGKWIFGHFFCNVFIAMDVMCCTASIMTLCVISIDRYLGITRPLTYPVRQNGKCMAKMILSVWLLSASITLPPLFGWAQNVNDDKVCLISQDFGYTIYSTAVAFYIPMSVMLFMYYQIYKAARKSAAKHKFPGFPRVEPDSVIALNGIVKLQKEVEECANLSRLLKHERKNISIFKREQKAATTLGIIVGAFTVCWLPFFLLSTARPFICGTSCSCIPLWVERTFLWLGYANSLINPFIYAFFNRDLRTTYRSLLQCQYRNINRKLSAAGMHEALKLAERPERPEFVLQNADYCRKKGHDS
# Method: as §1, §2
# adult schistosomes = experiment: Adult schistosome mobility assay; assay type: in vivo, Schistosoma mansoni
# Method: Female Swiss Webster mice exposed to Schistosoma mansoni cerceria (Strain PR-1) at 5–7 weeks old were obtained from BEI Resources (Cat. number NR-34792) and sacrificed 6–8 weeks post-infection. Mature S. mansoni were harvested from the mesenteric vasculature by portal perfusion. Briefly, mice were anesthetized in a CO2 chamber and sacrificed by cervical dislocation. Mice were perfused with sodium citrate (25mM) and adult schistosomes were harvested from the mesenteric veins. Schistosomes were washed in RPMI media containing penicillin (1000 units/mL), streptomycin (1000 μg/mL) and 25mM HEPES, then transferred to RPMI media supplemented with 2mM glutamine and 5% heat inactivated FBS. Worms were incubated overnight at 37°C, 5% CO2 before conducting assays. Recordings of adult schistosome movement were captured using a Zeiss Discovery v20 stereomicroscope and a QiCAM 12-bit cooled color CCD camera. Videos were acquired at a rate of four frames per second for one minute. Recordings of female worms were acquired at 7.6x magnification, 30 mm field of view and recordings of male worms were acquired at a 5.1x magnification, 45 mm field of view. Analysis was performed in ImageJ as described previously. Briefly, image (.tiff) stacks of each recording were imported and processed by converting to binary format so that pixel measurements represent area of the worms’ bodies. Mobility was quantified by measuring the difference in pixels resulting from subtracting the value of one frame (n) from those of the next frame in the sequence (n+1). This difference was expressed as a percentage of the pixels in the initial frame (n), providing a measurement of the worms’ movement over a period of 0.25 seconds. This calculation was performed for each frame in the video, and the results were averaged over the length of the recording. Values reported represent the mean (±) standard error of at least three independent experiments. Animal work was carried out with the oversight and approval of the Laboratory Animal Resources facility at the Iowa State University College of Veterinary Medicine.
# [4] = EC50 (agonist, cAMP generation), F22 sensor with IBMX
# [5] = IC50 (Hs.5HT7R) / IC50 (Sm.5HTR)
smiles,measurement,setting,value
CN1CCN(C2=Nc3cc(Cl)ccc3Nc3ccccc32)CC1 [clozapine],acute inhibition of 5-HT (10μM) response at Sm.5HTR,Sm.5HTR [1],Inhibition of 5-HT response
CN1C[C@H](C(=O)N[C@]2(C)O[C@@]3(O)[C@@H]4CCCN4C(=O)[C@H](Cc4ccccc4)N3C2=O)C=C2c3cccc4[nH]cc(c34)C[C@H]21 [ergotamine],EC50,Sm.5HTR [1]; [4],232 nM
same,ligand type at Sm.5HTR,Sm.5HTR [1],Agonist
same,Emax,Sm.5HTR [1],78 ± 2%
same,EC50,Sm.5HTR [1]; pEC50 ± S.E.M,229 nM
COc1cc2c(cc1OC)-c1cc3ccc(OC)c(OC)c3c[n+]1CC2 [palmatine],GPCR inhibition profile compared with rotundine,Sm.5HTR [1],decreased potency and selectivity for Sm.5HTR
COc1cc2nc(N(C)CCCNC(=O)C3CCCO3)nc(N)c2cc1OC (stereo not shown) [alfuzosin],inhibition of 5-HT evoked cAMP generation through Sm.5HTRL,Sm.5HTRL,inhibited 5-HT evoked cAMP generation
same,selectivity for Sm.5HTR over Hs.5HT7R,Sm.5HTR [1]; [5],clear selectivity for Sm.5HTR; also recorded: clear bias toward Sm.5HTR
Cc1nc2n(c(=O)c1CCN1CCC(c3noc4cc(F)ccc34)CC1)CCCC2 [risperidone],inhibition of Sm.5HTR after antagonist wash-out,Sm.5HTR [2],long-lasting inhibition
same,acute inhibition of 5-HT (10μM) response at Sm.5HTR,Sm.5HTR [1],Inhibition of 5-HT response
COc1cc2c(cc1OC)C1CC(=O)C(CC(C)C)CN1CC2 (stereo not shown) [tetrabenazine],inhibition at 100 µM,"[3]; Schistosoma mansoni, read-out: inhibition of 5-HT evoked contractility",~50%
same,potency (IC50) at Hs.5HT7R,Hs.5HT7R,supra-μM potency
same,potency (IC50) at Sm.5HTR,Sm.5HTR [1],sub-μM potency
same,GPCR inhibition profile compared with rotundine,Sm.5HTR [1],selectivity for Sm.5HTR retained
"O=C(C1CCCCC1)N1CC(=O)N2CCc3ccccc3C2C1 (stereo not shown) [Praziquantel, praziquantel]",ligand type at Sm.5HTR,Sm.5HTR [1],Inactive
same,activity at Sm.5HTR,Sm.5HTR [1]; listed as PZQ,did not reveal any modulation of receptor activity; also recorded: did not yield any effect
CNCCC(Oc1ccc(C(F)(F)F)cc1)c1ccccc1 (stereo not shown) [fluoxetine],selectivity for Sm.5HTR over Hs.5HT7R,Sm.5HTR [1]; [5],preferential selectivity toward Sm.5HTR
CN1C[C@H](C(=O)N[C@]2(C)O[C@@]3(O)[C@@H]4CCCN4C(=O)[C@H](Cc4ccccc4)N3C2=O)C[C@@H]2c3cccc4[nH]cc(c34)C[C@H]21 [dihydroergotamine],EC50,Sm.5HTR [1]; [4],315 nM
same,ligand type at Sm.5HTR,Sm.5HTR [1],Agonist
same,Emax,Sm.5HTR [1],52 ± 1%
same,EC50,Sm.5HTR [1]; pEC50 ± S.E.M,316 nM
COc1ccc2cc1Oc1ccc(cc1)C[C@H]1c3cc(c(OC)cc3CCN1C)Oc1c(OC)c(OC)cc3c1[C@H](C2)N(C)CC3 [tetrandrine],IC50,"[3]; Schistosoma mansoni, read-out: IC50 (inhibition of 5-HT evoked contractions)",≤ 1000 nM
same,effect on 5-HT evoked increases in worm movement,"adult schistosomes; 10μM, 5-HT 100μM",lacked an inhibitory effect
same,effect on basal movement of adult worms,"adult schistosomes; 10μM, worms at rest",enhanced movements of isolated female worms
same,potency (IC50) at Hs.5HT7R,Hs.5HT7R,supra-μM potency
same,potency (IC50) at Sm.5HTR,Sm.5HTR [1],sub-μM potency
CC1CCN(CC[C@H]2CCCN2S(=O)(=O)c2cccc(O)c2)CC1 [SB269970],activity at Sm.5HTR,Sm.5HTR [1],modest effects
same,activity at Sm.5HTR,Sm.5HTR [1]; listed as SB 269970,completely lacked activity
CN1CCC(=C2c3ccccc3C=Cc3ccccc32)CC1 [cyproheptadine],time to full reversal of inhibition after ligand removal,"Sm.5HTR [2]; 10μM, 30 mins preincubation",≤ 1 h
same,acute inhibition of 5-HT (10μM) response at Sm.5HTR,Sm.5HTR [1],acutely inhibited
CSc1ccc2c(c1)C(N1CCN(C)CC1)Cc1ccccc1S2 (stereo not shown) [methiothepin],inhibition of Sm.5HTR after antagonist wash-out,Sm.5HTR [2],long-lasting inhibition
same,potency for Sm.5HTR inhibition after washout,"Sm.5HTR [2]; titration, Fig 6E",most potent
same,acute inhibition of 5-HT (10μM) response at Sm.5HTR,"Sm.5HTR [1]; drug 10μM, preincubation",antagonism of 5-HT stimulated cAMP generation; also recorded: Inhibition of 5-HT response
CN1C[C@H](CNC(=O)OCc2ccccc2)C[C@@H]2c3cccc4c3c(cn4C)C[C@H]21 [metergoline],inhibition of Sm.5HTR after antagonist wash-out,Sm.5HTR [2],long-lasting inhibition
same,ligand type at Sm.5HTR,Sm.5HTR [1],Antagonist
same,Kb,"Sm.5HTR [1]; Schild regression, read-out: pKB ± S.E.M (converted)",4570 nM
same,agonist efficacy at Sm.5HTR,Sm.5HTR [1],no efficacy
same,acute inhibition of 5-HT (10μM) response at Sm.5HTR,"Sm.5HTR [1]; drug 10μM, preincubation",Inhibition of 5-HT response
same,Kb,"Sm.5HTR [1]; right-shift of 5-HT dose-response, read-out: KB (affinity constant, Schild regression)",4530 nM
O=S(=O)(c1ccccc1)c1cnc2c(N3CCNCC3)cccc2c1 [SB742457],inhibition of Hs.5HT7R,Hs.5HT7R; Fig 4,potent inhibitors
same,activity at Sm.5HTR,Sm.5HTR [1],completely lacked activity; also recorded: modest effects
COc1ccc2cc3[n+](cc2c1OC)CCc1cc2c(cc1-3)OCO2 [berberine],GPCR inhibition profile compared with rotundine,Sm.5HTR [1],decreased potency and selectivity for Sm.5HTR
"NCCc1c[nH]c2ccc(O)cc12 [5-HT, Serotonin]",effect on basal contractile rate of schistosomules,"[3]; exogenous addition, dose-dependent",increase in the basal contractile rate
same,effect on movement of unpaired male and female worms,adult schistosomes; 5-HT application,significantly increased the movement
same,EC50,"Sm.5HTRL; F22 sensor with IBMX, read-out: EC50 (cAMP generation, Sm.5HTRL)",200 ± 30 nM
same,EC80,Sm.5HTRL; HEK293,800 nM
same,greater sensitivity of Sm.5HTRL vs Sm.5HTR,Sm.5HTRL; ratio of 5-HT EC50 values,~ 10 fold
"CCN(CC)C(=O)[C@@H]1C=C2c3cccc4[nH]cc(c34)C[C@H]2N(C)C1 [LSD, lysergic acid diethylamide]",ligand type at Sm.5HTR,Sm.5HTR [1],Antagonist
same,Kb,"Sm.5HTR [1]; KB (affinity constant, Schild regression), right-shift of 5-HT dose-response",629 nM
same,inhibition of 5-HT evoked cAMP generation,Sm.5HTR [1]; at higher concentrations (>10μM),almost complete inhibition
same,agonist efficacy at Sm.5HTR,Sm.5HTR [1],no efficacy
same,Kb,"Sm.5HTR [1]; pKB ± S.E.M, Schild regression",631 nM
CNCC[C@@H](Oc1ccccc1C)c1ccccc1 [atomoxetine],inhibition of 5-HT evoked cAMP generation through Sm.5HTRL,Sm.5HTRL,inhibited 5-HT evoked cAMP generation
same,selectivity for Sm.5HTR over Hs.5HT7R,Sm.5HTR [1],clear selectivity for Sm.5HTR; also recorded: preferential selectivity toward Sm.5HTR
CCN1CCCC1CNC(=O)c1cc(S(=O)(=O)CC)c(N)cc1OC (stereo not shown) [amisulpride],activity at Sm.5HTR,Sm.5HTR [1],modest effects
